Type in all cases: biochemical
The target of experiment [1] is T1, JAK2 (Homo sapiens, UniProt O60674).
T1 construct: made in house; host or cells: SF9 insect cells (baculovirus)
The experiment can be described thus: JAK2 inhibition (Table 4). As to conditions: read-out: JAK2 Ki.

The target in experiment [2] is T2, JAK1 (Homo sapiens, UniProt P23458).
T2 construct: made in house; host or cells: SF9 insect cells (baculovirus)
Kind of experiment: JAK1 inhibition (Table 4). As to conditions: read-out: JAK1 Ki.

In experiment [3] the target is T3, JAK3 (Homo sapiens, UniProt P52333).
T3 construct: made in house; host or cells: SF9 insect cells (baculovirus)
The experiment can be described thus: JAK3 inhibition (Table 4). As to conditions: read-out: JAK3 Ki.

The target of experiment [4] is T4, TYK2 (Homo sapiens, UniProt P29597).
T4 construct: made in house; host or cells: SF9 insect cells (baculovirus)
T4 sequence (P29597 873-1187): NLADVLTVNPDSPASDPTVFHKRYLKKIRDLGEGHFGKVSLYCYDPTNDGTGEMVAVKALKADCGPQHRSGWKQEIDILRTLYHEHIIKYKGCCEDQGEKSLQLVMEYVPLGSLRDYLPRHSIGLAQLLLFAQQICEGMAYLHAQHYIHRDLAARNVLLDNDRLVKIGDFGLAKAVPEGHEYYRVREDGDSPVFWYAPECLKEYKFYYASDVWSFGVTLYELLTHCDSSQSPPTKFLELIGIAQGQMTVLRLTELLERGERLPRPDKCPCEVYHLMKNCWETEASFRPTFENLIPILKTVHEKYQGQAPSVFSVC
Kind of experiment: TYK2 inhibition (Table 4).

Structures are written as SMILES.

T1 sequence (O60674 812-1132): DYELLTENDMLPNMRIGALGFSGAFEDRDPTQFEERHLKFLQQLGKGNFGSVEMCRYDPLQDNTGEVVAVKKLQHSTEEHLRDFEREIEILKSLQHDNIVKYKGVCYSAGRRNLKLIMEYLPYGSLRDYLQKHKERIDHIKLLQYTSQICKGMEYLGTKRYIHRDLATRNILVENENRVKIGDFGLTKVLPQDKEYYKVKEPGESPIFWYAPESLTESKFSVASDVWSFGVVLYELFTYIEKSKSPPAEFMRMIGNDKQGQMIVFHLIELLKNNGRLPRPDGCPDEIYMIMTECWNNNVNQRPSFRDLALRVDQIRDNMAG
T3 sequence (P52333 783-1124): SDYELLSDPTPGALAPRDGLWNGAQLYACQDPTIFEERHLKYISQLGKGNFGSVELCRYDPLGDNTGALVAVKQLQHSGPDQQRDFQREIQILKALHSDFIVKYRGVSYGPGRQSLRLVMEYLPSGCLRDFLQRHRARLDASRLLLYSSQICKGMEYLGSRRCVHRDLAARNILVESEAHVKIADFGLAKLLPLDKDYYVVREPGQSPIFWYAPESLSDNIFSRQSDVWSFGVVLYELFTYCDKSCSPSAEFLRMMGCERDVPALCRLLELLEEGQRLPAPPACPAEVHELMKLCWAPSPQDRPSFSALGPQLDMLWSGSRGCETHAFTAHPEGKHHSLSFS
T2 sequence (P23458 852-1154): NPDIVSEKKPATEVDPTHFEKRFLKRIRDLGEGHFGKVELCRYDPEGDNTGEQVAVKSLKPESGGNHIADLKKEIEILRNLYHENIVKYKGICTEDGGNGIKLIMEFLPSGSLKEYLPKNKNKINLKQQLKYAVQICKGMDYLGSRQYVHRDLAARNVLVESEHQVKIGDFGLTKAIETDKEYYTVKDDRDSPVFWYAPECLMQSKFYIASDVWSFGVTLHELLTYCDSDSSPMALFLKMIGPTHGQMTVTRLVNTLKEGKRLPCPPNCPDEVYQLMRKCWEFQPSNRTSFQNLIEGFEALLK

For orientation: Ki means the equilibrium dissociation constant of an inhibitor or competing ligand from its target. For `C[C@@H](O)c1nc2cnc3[nH]ccc3c2n1C1CCN(Cc2cncn2C)CC1` [Example 823, (R)-1-{1-[1-(3-Methyl-3H-imidazol-4-ylmethyl)-piperidin-4-yl]-1,6-dihydro-1,3,5,6-tetraaza-as-indacen-2-yl}-ethanol], the Ki in experiment [1] was found to be 171 nM; in experiment [2], 22.2 nM; in experiment [3] it was 84.8 nM; in experiment [4], 179 nM.
Regarding `C[C@@H](O)c1nc2cnc3[nH]ccc3c2n1C1CCN(Cc2ccn(C)n2)CC1` [Example 825, (R)-1-{1-[1-(1-Methyl-1H-pyrazol-3-ylmethyl)-piperidin-4-yl]-1,6-dihydro-1,3,5,6-tetraaza-as-indacen-2-yl}-ethanol], the Ki in experiment [1] amounted to 350 nM; in experiment [2], 26 nM; in experiment [3] it was 143 nM; in experiment [4], 1960 nM.
The matching figures for `C[C@@H](O)c1nc2cnc3[nH]ccc3c2n1C1CCN(Cc2nccn2C)CC1` [Example 826, (R)-1-{1-[1-(1-Methyl-1H-imidazol-2-ylmethyl)-piperidin-4-yl]-1,6-dihydro-1,3,5,6-tetraaza-as-indacen-2-yl}-ethanol]: 419 nM, 47 nM, 209 nM and 1160 nM.
For `C[C@@H](O)c1nc2cnc3[nH]ccc3c2n1C1CCN(C2COC2)CC1` [Example 832, (R)-1-[1-(1-Oxetan-3-yl-piperidin-4-yl)-1,6-dihydro-1,3,5,6-tetraaza-as-indacen-2-yl]-ethanol], the Ki in experiment [1] was determined as 428 nM; in experiment [2], 55.5 nM; in experiment [3] it was 516 nM; in experiment [4], 493 nM.
On the same counts, the results for `CC(C)(C)NCCOCc1nc2cnc3[nH]ccc3c2n1C1CCN(CCC#N)CC1` [Example 833, 3-{4-[2-(2-tert-Butylamino-ethoxymethyl)-6H-1,3,5,6-tetraaza-as-indacen-1-yl]-piperidin-1-yl}-propionitrile] are 14 nM, 18.1 nM, 101 nM and 125 nM.
Consider `N#CCCN1CCC(n2c(COCC(F)(F)F)nc3cnc4[nH]ccc4c32)CC1` [Example 834, 3-{4-[2-(2,2,2-Trifluoro-ethoxymethyl)-6H-1,3,5,6-tetraaza-as-indacen-1-yl]-piperidin-1-yl}-propionitrile], for which the Ki was 117 nM in experiment [1], 33.5 nM in experiment [2], 85.4 nM in experiment [3] and 637 nM in experiment [4].
On the same counts, the results for `N#CCCN1CCC(n2c(COCc3ccc(F)c(F)c3)nc3cnc4[nH]ccc4c32)CC1` [Example 835, 3-{4-[2-(3,4-Difluoro-benzyloxymethyl)-6H-1,3,5,6-tetraaza-as-indacen-1-yl]-piperidin-1-yl}-propionitrile] are 59.1 nM, 37.9 nM, 29.6 nM and 320 nM.
The matching figures for `N#CCCN1CCC(n2c(COCC3CCOC3)nc3cnc4[nH]ccc4c32)CC1` (centres unmarked) [Example 836, 3-{4-[2-(Tetrahydro-furan-3-ylmethoxymethyl)-6H-1,3,5,6-tetraaza-as-indacen-1-yl]-piperidin-1-yl}-propionitrile]: 89 nM, 38.6 nM, 95.1 nM and 384 nM.
On the same counts, the results for `N#CCCN1CCC(n2c(COC3CCOCC3)nc3cnc4[nH]ccc4c32)CC1` [Example 837, 3-{4-[2-(Tetrahydro-pyran-4-yloxymethyl)-6H-1,3,5,6-tetraaza-as-indacen-1-yl]-piperidin-1-yl}-propionitrile] are 83.2 nM, 39.6 nM, 114 nM and 298 nM.
Turning to `N#CCCN1CCC(n2c(COCC3CCCC3)nc3cnc4[nH]ccc4c32)CC1` [Example 838, 3-[4-(2-Cyclopentylmethoxymethyl-6H-1,3,5,6-tetraaza-as-indacen-1-yl)-piperidin-1-yl]-propionitrile], the Ki amounted to 85.5 nM in experiment [1], 54.2 nM in experiment [2], 90.4 nM in experiment [3] and 618 nM in experiment [4].
The matching figures for `N#CCCN1CCC(n2c(COCC3CC3)nc3cnc4[nH]ccc4c32)CC1` [Example 839, 3-[4-(2-Cyclopropylmethoxymethyl-6H-1,3,5,6-tetraaza-as-indacen-1-yl)-piperidin-1-yl]-propionitrile]: 106 nM, 61.7 nM, 73.5 nM and 595 nM.
On the same counts, the results for `N#CCCN1CCC(n2c(COCC3CCC3)nc3cnc4[nH]ccc4c32)CC1` [Example 840, 3-[4-(2-Cyclobutylmethoxymethyl-6H-1,3,5,6-tetraaza-as-indacen-1-yl)-piperidin-1-yl]-propionitrile] are 102 nM, 62.3 nM, 104 nM and 635 nM.
The matching figures for `CC1CC1COCc1nc2cnc3[nH]ccc3c2n1C1CCN(CCC#N)CC1` (centres unmarked) [Example 841, 3-{4-[2-(2-Methyl-cyclopropylmethoxymethyl)-6H-1,3,5,6-tetraaza-as-indacen-1-yl]-piperidin-1-yl}-propionitrile]: 109 nM, 66.5 nM, 147 nM and 771 nM.
As to `CC(C)OCc1nc2cnc3[nH]ccc3c2n1C1CCN(CCC#N)CC1` [Example 842, 3-[4-(2-Isopropoxymethyl-6H-1,3,5,6-tetraaza-as-indacen-1-yl)-piperidin-1-yl]-propionitrile], the Ki in experiment [1] is 171 nM; in experiment [2], 81 nM; in experiment [3], 236 nM; in experiment [4], 905 nM.
The matching figures for `CC(C)OCCOCc1nc2cnc3[nH]ccc3c2n1C1CCN(CCC#N)CC1` [Example 843, 3-{4-[2-(2-Isopropoxy-ethoxymethyl)-6H-1,3,5,6-tetraaza-as-indacen-1-yl]-piperidin-1-yl}-propionitrile]: 80.8 nM, 84.2 nM, 169 nM and 631 nM.
On the same counts, the results for `N#CCCN1CCC(n2c(COC3CCCC3)nc3cnc4[nH]ccc4c32)CC1` [Example 844, 3-[4-(2-Cyclopentyloxymethyl-6H-1,3,5,6-tetraaza-as-indacen-1-yl)-piperidin-1-yl]-propionitrile] are 177 nM, 97.1 nM, 169 nM and 732 nM.
The matching figures for `Cc1nc2cnc3[nH]ccc3c2n1C1CC2CCC1O2` (stereo not drawn) [Example 845, exo-2-Methyl-1-(7-oxa-bicyclo[2.2.1]hept-2-yl)-1,6-dihydro-1,3,5,6-tetraaza-as-indacene]: 13.9 nM, 4.17 nM, 52.3 nM and 28.8 nM.
Regarding `CC(O)c1nc2cnc3[nH]ccc3c2n1C1CC2CCC1O2` (stereo not drawn) [Example 848, endo-1-[1-(7-Oxa-bicyclo[2.2.1]hept-2-yl)-1,6-dihydro-1,3,5,6-tetraaza-as-indacen-2-yl]-ethanol], the Ki in experiment [1] turned out to be 156 nM; in experiment [2], 120 nM; in experiment [3] it was 71.9 nM; in experiment [4], 216 nM.
The matching figures for `CS(=O)(=O)NCCc1nc2cnc3[nH]ccc3c2n1[C@H]1CCCOC1` [Example 854, (S)—N-{2-[1-(Tetrahydro-pyran-3-yl)-1,6-dihydro-1,3,5,6-tetraaza-as-indacen-2-yl]-ethyl}-methanesulfonamide]: 77.1 nM, 4.01 nM, 195 nM and 138 nM.
Regarding `CC(=O)NCCc1nc2cnc3[nH]ccc3c2n1[C@H]1CCCOC1` [Example 856, (S)—N-{2-[1-(Tetrahydro-pyran-3-yl)-1,6-dihydro-1,3,5,6-tetraaza-as-indacen-2-yl]-ethyl}-acetamide], the Ki in experiment [1] turned out to be 121 nM; in experiment [2], 5.96 nM; in experiment [3] it was 276 nM; in experiment [4], 259 nM.
On the same counts, the results for `O=C(NCCc1nc2cnc3[nH]ccc3c2n1[C@H]1CCCOC1)C1CC1` [Example 857, (S)-Cyclopropanecarboxylic acid {2-[1-(tetrahydro-pyran-3-yl)-1,6-dihydro-1,3,5,6-tetraaza-as-indacen-2-yl]-ethyl}-amide] are 213 nM, 6.23 nM, 525 nM and 364 nM.
The matching figures for `OCCc1nc2cnc3[nH]ccc3c2n1[C@H]1CCCOC1` [Example 859, (S)-2-[1-(Tetrahydro-pyran-3-yl)-1,6-dihydro-1,3,5,6-tetraaza-as-indacen-2-yl]-ethanol]: 53 nM, 10.1 nM, 107 nM and 68.4 nM.
With `C[C@@H](O)c1nc2cnc3[nH]ccc3c2n1C1CCN(C2(CC#N)COC2)CC1` [Example 861, (3-{4-[2-((R)-1-Hydroxy-ethyl)-6H-1,3,5,6-tetraaza-as-indacen-1-yl]-piperidin-1-yl}-oxetan-3-yl)-acetonitrile], the inhibition constant (Ki) in experiment [1] came to 205 nM; in experiment [2], 39.4 nM; in experiment [3], 1670 nM; in experiment [4], 602 nM.

These data come from patent publication US8461328B2, “Tricyclic heterocyclic compounds, compositions and methods of use thereof” (Genentech, Inc., priority 2010, dated 2013).
